The values below come from patent US4952572A (priority 1989, dated 1990).

The test system of one series is Cryptococcus neoformans. The series can be described thus: In vitro antifungal activity, summary. The format is cell-based. Particulars: relative to BU-3420T acetate.
The next series can be described thus: Solubility. Format: physicochemical.
Series [1] relates to Gram-positive aerobic bacteria. Format: cell-based. Particulars: in words.
A further series deals with Moser cells. The series is described as follows: In vitro cytotoxicity, neutral red. The format is cell-based, human.
Another series concerns Gram-negative organisms. The format is cell-based. Particulars: in words; relative to Gram-positive aerobic bacteria.
For series [2], the system named is murine and human tumor cell lines. The series is described as follows: In vitro cytotoxicity, summary. Particulars: in words. As for the experimental part: (§1) On the other hand, the cytotoxic activities against P388 and P388/VCR cells were determined by counting the number of viable cells.
A short description of series [3]: Acute toxicity in mice, intramuscular. Format: in vivo. Particulars: 5 mg/kg.
For series [4], the system named is Staphylococcus aureus Smith. The series is described as follows: In vivo activity against S. aureus Smith infection (ip) in mice. Particulars: im, single. Here is the method: Mice were challenged intraperitoneally with 100 times the lethal dose of the pathogen in a 5% suspension of hog gastric mucin (American Laboratory, Omaha, Neb.). BU-3420T was administered to mice intramuscularly just before the bacterial challenge.

The test system of another series is P388/VCR cells. The series is described as follows: In vitro cytotoxicity, viable cell count. The following applies: in words. Here is the method: as §1

With `C[C@@H]1[C@H](O)[C@@H](C)/C=C/C=C/C=C/C=C/C=C/C=C/C=C/[C@H](O[C@@H]2O[C@H](C)[C@@H](O)[C@H](N)[C@@H]2O)C[C@@H]2O[C@](O)(C[C@@H](O)C[C@@H](O)[C@H](O)CC[C@@H](O)C[C@@H](O)CC(=O)O[C@H]1C)C[C@H](O)[C@H]2C(=O)O` [Amphotericin B], in the series on Cryptococcus neoformans, the “susceptibility of Cryptococcus neoformans” value is “more susceptible to amphotericin B”.

Turning to `COC1=C(C(=O)O)C(C)C23OC24c2cc(OC(C)=O)c5c(c2NC3C#C/C=C\C#CC14)C(=O)c1c(OC(C)=O)ccc(OC(C)=O)c1C5=O` (stereo not shown) [BU-3420T acetate], the solubility result in the series “Solubility” (in organic solvents such as chloroform, methanol and ethanol, relative to BU-3420T) was “much improved solubility”. For the same molecule, the antibacterial activity entry in [1] is “intensely potent activity”. The IC50 in the series with Moser cells (Homo sapiens, Moser, 72 hours) came out at 0.003 ng/mL. The “susceptibility of Gram-negative organisms” value in the series on Gram-negative organisms is on record as “a little less susceptible”.

On to `COC1=C(C(=O)O)C(C)C23OC24c2cc(O)c5c(c2NC3C#C/C=C\C#CC14)C(=O)c1c(O)ccc(O)c1C5=O` (stereo not shown) [BU-3420T], for which the solubility entry in the series “Solubility” (in chloroform, ethyl acetate, methanol and ethanol) is reported as “slightly soluble”; in “Solubility” (in dimethyl sulfoxide, dimethylformamide and dioxane), “soluble”; in “Solubility” (in water and n-hexane), “insoluble”. In [1], the antibacterial activity result is “intensely potent activity”. The cytotoxicity result in series [2] was “potent cytotoxicity”. In addition, the toxicity entry in series [3] is reported as “did not show any toxicity”. The No. of survivor/tested in series [4] (0.01 mg/kg) and in [4] (0.04 mg/kg) was 0/5 in each case. Besides, the “susceptibility of Gram-negative organisms” value in the series with Gram-negative organisms was “a little less susceptible”. For the same molecule, the “cytotoxicity against VCR-sensitive vs resistant P388 cells” value with P388/VCR cells is reported as “same cytotoxicities”.

On to `CO[C@@]12[C@H](COC(N)=O)C3=C(C(=O)C(C)=C(N)C3=O)N1C[C@@H]1N[C@@H]12` [Mitomycin C], for which, in the series with Moser cells (Moser and HCT-116 cells vs B16-F10), the “resistance of Moser and HCT-116 relative to B16-F10” value is given as “slightly more resistant”.
